Results published in patent US4308273A, “1,6-Naphthyridine derivatives, and antidinic and cerebral circulation improver containing such derivatives” (Nippon Kayaku Kabushiki Kaisha, priority 1978, dated 1981).
Where two headings read alike, the source gives them in different places.

Tests used:
[1] = Acute toxicity (LD50) by intraperitoneal injection; conditions: mouse, in vivo, ip; male mice, intraperitoneal injection (Table 3)
Description: LD50 values of the compounds by intraperitoneal injection in mice were determined.

[2] = Inhibition of spontaneous nystagmus produced by unilateral destruction of the labyrinth (anti-vertigo action); format: in vivo; conditions: cats
Description: (1) It is well known that vertigo resulting from the disturbance of the peripheral labyrinth is accompanied by nystagmus. So, we acutely produced the spontaneous nystagmus by unilateral destruction of the labyrinth in cats and used it as an experimental model of vertigo. a pair of Ag--AgCl cup electrodes was placed laterally to both orbits and an indifferent electrode on the forehead. The nystagmus was recorded through an amplifier. The inhibitory effect of the compounds on the nystagmus was expressed by [formula] where A is the frequency of the nystagmus in ten seconds before administration of the compounds and B is the frequency of the nystagmus at the maximum inhibitory point after administration. The duration of the effect was also measured. Compounds dissolved in saline were injected into the femoral vein. Betahistine and diphenidol were used as standard drugs.
A: Doses of compounds injected intraveneously.
B: Effect of compounds on the nystagmus expressed as inhibitory
C: Duration of the effect of compounds

[3] = mouse, in vivo, 50 mg/kg
Description: (§1) Groups consisted of 10 male-mice were administered the compounds or saline subcutaneously 15 min. prior to an intraperitoneal injection of sodium hexobarbital. Sleeping time for each animal in a group was measured. The averaged value of sleeping time in each group was calculated. The action of the sleeping time was expressed by the percentage of the sleeping time in the compound-treated groups to that in the saline-treated group.
(§2) D: Sleeping time of the compound (50 mg/kg, subcutaneously)treated groups
(§3) expressd as percentage to that of the control group.

[4] = Effect on the hexobarbital-induced sleeping time; conditions: male mice, 50 mg/kg subcutaneously, 15 min prior to sodium hexobarbital i.p.
Description: as §1, §2, §3

[5] = Felis catus, iv, 6 mg/kg injected intravenously, read-out: Effect of compounds on the nystagmus expressed as inhibitory percentage

Row | Structure (SMILES) | LD50 [1] | inhibition at 6 mg/kg [2, 5] | Duration of the effect of compounds (nystagmus) ([2]; 6 mg/kg injected intravenously) | Sleeping time of the compound treated groups expressed as percentage to that of the control group [3] | inhibition at 12 mg/kg ([2]; Felis catus, iv, 12 mg/kg injected intravenously, read-out: Effect of compounds on the nystagmus expressed as inhibitory percentage) | Duration of the effect of compounds (nystagmus) ([2]; 12 mg/kg injected intravenously) | Sleeping time of the compound treated groups expressed as percentage to that of the control group [4]
1 | OC(CCCN1CCCCC1)(c1ccccc1)c1ccccc1 [diphenidol, reference compound] | 105 mg/kg | 70% | 45 min | 253.7% |  |  | 
2 | c1cnc2c(c1)CN(CC1CC1)CC2 [Compound 22] | 176 mg/kg | 85% | 19 min |  | 98% | 35 min | 114.4%
